± gives the expanded uncertainty stated by the source.
Assay: molar enthalpy of vaporization or sublimation
Settings: 298.15 K; Crystal; drop microcalorimetry

SMILES	molar enthalpy [kcal/mol]
O=[N+]([O-])c1ccc(Cl)cc1Cl [1,3-dichloro-4-nitrobenzene]	21 ± 0.813
O=[N+]([O-])c1cc(Cl)cc(Cl)c1 [1,3-dichloro-5-nitrobenzene]	19.9 ± 0.717
O=[N+]([O-])c1cc(Cl)ccc1Cl [1,4-dichloro-2-nitrobenzene]	20.9 ± 1.2
O=[N+]([O-])c1ccc(Cl)c(Cl)c1 [3,4-dichloro-1-nitrobenzene]	20.5 ± 1.2

— the NIST ThermoML archive (doi:10.1016/j.jct.2009.03.001)
